Reference: patent US20070049564A1 (Wyeth, priority 2005, published 2007)
Converted amounts (≈) assume the structure as drawn. Where two headings read alike, the source gives them in different places.

Tests used:
Experiment in all cases: MIC, broth microdilution
E. coli GC 2231 = conditions: Escherichia coli
E. coli GC 2235 = conditions: Escherichia coli
E. coli GC 2232 = conditions: Escherichia coli
E. coli GC 2270 = conditions: Escherichia coli
E. coli GC 2271 = conditions: Escherichia coli
E. coli GC 4559 = conditions: Escherichia coli
E. coli GC 4560 = conditions: Escherichia coli
E. coli GC 3226 = conditions: Escherichia coli
E. coli GC 2203 = conditions: Escherichia coli
S. typhimurium GC 2172 = conditions: Salmonella enterica, TYPHIMURIUM
P. aeruginosa GC 2214 = conditions: Pseudomonas aeruginosa
S. aureus GC 6467 = conditions: Staphylococcus aureus
S. aureus GC 2216 = conditions: Staphylococcus aureus
S. aureus GC 6335 = conditions: Staphylococcus aureus
E. faecalis GC 2267 = conditions: Enterococcus faecalis
E. faecalis GC 2242 = conditions: Enterococcus faecalis
E. faecium GC 4556 = conditions: Enterococcus faecium
S. pneumoniae* GC 4465 = conditions: Streptococcus pneumoniae
S. agalactiae GC 4564 = conditions: Streptococcus agalactiae
[1] = read-out: MINIMAL INHIBITORY CONCENTRATION MIC, Human Serum
[2] = read-out: MINIMAL INHIBITORY CONCENTRATION MIC, Mouse Serum
[3] = read-out: MINIMAL INHIBITORY CONCENTRATION MIC, Water

MIC (E. coli GC 2231; GC2231, read-out: MINIMAL INHIBITORY CONCENTRATION MIC, Human Serum): 32 µg/mL (≈ 40.4 µM)
MIC (E. coli GC 2231; GC2231, read-out: MINIMAL INHIBITORY CONCENTRATION MIC, Mouse Serum): 2 µg/mL (≈ 2.53 µM)
MIC (E. coli GC 2231; GC2231, read-out: MINIMAL INHIBITORY CONCENTRATION MIC, Water): > 64 µg/mL
MIC (E. coli GC 2235; GC2235, read-out: MINIMAL INHIBITORY CONCENTRATION MIC, Human Serum): 32 µg/mL (≈ 40.4 µM)
MIC (E. coli GC 2235; GC2235, read-out: MINIMAL INHIBITORY CONCENTRATION MIC, Mouse Serum): 1 µg/mL (≈ 1.26 µM)
MIC (E. coli GC 2235; GC2235, read-out: MINIMAL INHIBITORY CONCENTRATION MIC, Water): > 64 µg/mL
MIC (E. coli GC 2232; GC2232, read-out: MINIMAL INHIBITORY CONCENTRATION MIC, Human Serum): 32 µg/mL (≈ 40.4 µM)
MIC (E. coli GC 2232; GC2232, read-out: MINIMAL INHIBITORY CONCENTRATION MIC, Mouse Serum): 2 µg/mL (≈ 2.53 µM)
MIC (E. coli GC 2232; GC2232, read-out: MINIMAL INHIBITORY CONCENTRATION MIC, Water): > 64 µg/mL
MIC (E. coli GC 2270; GC2270, read-out: MINIMAL INHIBITORY CONCENTRATION MIC, Human Serum): 32 µg/mL (≈ 40.4 µM)
MIC (E. coli GC 2270; GC2270, read-out: MINIMAL INHIBITORY CONCENTRATION MIC, Mouse Serum): 1 µg/mL (≈ 1.26 µM)
MIC (E. coli GC 2270; GC2270, read-out: MINIMAL INHIBITORY CONCENTRATION MIC, Water): > 64 µg/mL
MIC (E. coli GC 2271; GC2271, read-out: MINIMAL INHIBITORY CONCENTRATION MIC, Human Serum): 32 µg/mL (≈ 40.4 µM)
MIC (E. coli GC 2271; GC2271, read-out: MINIMAL INHIBITORY CONCENTRATION MIC, Mouse Serum): 1 µg/mL (≈ 1.26 µM)
MIC (E. coli GC 2271; GC2271, read-out: MINIMAL INHIBITORY CONCENTRATION MIC, Water): > 64 µg/mL
MIC (E. coli GC 4559; GC4559, read-out: MINIMAL INHIBITORY CONCENTRATION MIC, Human Serum): 32 µg/mL (≈ 40.4 µM)
MIC (E. coli GC 4559; GC4559, read-out: MINIMAL INHIBITORY CONCENTRATION MIC, Mouse Serum): 2 µg/mL (≈ 2.53 µM)
MIC (E. coli GC 4559; GC4559, read-out: MINIMAL INHIBITORY CONCENTRATION MIC, Water): > 64 µg/mL
MIC (E. coli GC 4560; GC4560, read-out: MINIMAL INHIBITORY CONCENTRATION MIC, Human Serum): 8 µg/mL (≈ 10.1 µM)
MIC (E. coli GC 4560; GC4560, read-out: MINIMAL INHIBITORY CONCENTRATION MIC, Mouse Serum): 1 µg/mL (≈ 1.26 µM)
MIC (E. coli GC 4560; GC4560, read-out: MINIMAL INHIBITORY CONCENTRATION MIC, Water): 32 µg/mL (≈ 40.4 µM)
MIC (E. coli GC 3226; GC3226, read-out: MINIMAL INHIBITORY CONCENTRATION MIC, Human Serum): 64 µg/mL (≈ 80.8 µM)
MIC (E. coli GC 3226; GC3226, read-out: MINIMAL INHIBITORY CONCENTRATION MIC, Mouse Serum): 2 µg/mL (≈ 2.53 µM)
MIC (E. coli GC 3226; GC3226, read-out: MINIMAL INHIBITORY CONCENTRATION MIC, Water): > 64 µg/mL
MIC (E. coli GC 2203; GC2203, read-out: MINIMAL INHIBITORY CONCENTRATION MIC, Human Serum): 32 µg/mL (≈ 40.4 µM)
MIC (E. coli GC 2203; GC2203, read-out: MINIMAL INHIBITORY CONCENTRATION MIC, Mouse Serum): 2 µg/mL (≈ 2.53 µM)
MIC (E. coli GC 2203; GC2203, read-out: MINIMAL INHIBITORY CONCENTRATION MIC, Water): > 64 µg/mL
MIC (S. typhimurium GC 2172; [1]): 64 µg/mL (≈ 80.8 µM)
MIC (S. typhimurium GC 2172; [2]): 8 µg/mL (≈ 10.1 µM)
MIC (S. typhimurium GC 2172; [3]): > 64 µg/mL
MIC (P. aeruginosa GC 2214; GC2214, read-out: MINIMAL INHIBITORY CONCENTRATION MIC, Human Serum): > 64 µg/mL
MIC (P. aeruginosa GC 2214; GC2214, read-out: MINIMAL INHIBITORY CONCENTRATION MIC, Mouse Serum): 64 µg/mL (≈ 80.8 µM)
MIC (P. aeruginosa GC 2214; GC2214, read-out: MINIMAL INHIBITORY CONCENTRATION MIC, Water): > 64 µg/mL
MIC (S. aureus GC 6467; GC6467, read-out: MINIMAL INHIBITORY CONCENTRATION MIC, Human Serum): 1 µg/mL (≈ 1.26 µM)
MIC (S. aureus GC 6467; GC6467, read-out: MINIMAL INHIBITORY CONCENTRATION MIC, Mouse Serum): 0.5 µg/mL (≈ 0.631 µM)
MIC (S. aureus GC 6467; GC6467, read-out: MINIMAL INHIBITORY CONCENTRATION MIC, Water): 2 µg/mL (≈ 2.53 µM)
MIC (S. aureus GC 2216; GC2216, read-out: MINIMAL INHIBITORY CONCENTRATION MIC, Human Serum): 0.5 µg/mL (≈ 0.631 µM)
MIC (S. aureus GC 2216; GC2216, read-out: MINIMAL INHIBITORY CONCENTRATION MIC, Mouse Serum): 0.5 µg/mL (≈ 0.631 µM)
MIC (S. aureus GC 2216; GC2216, read-out: MINIMAL INHIBITORY CONCENTRATION MIC, Water): 1 µg/mL (≈ 1.26 µM)
MIC (S. aureus GC 6335; GC6335, read-out: MINIMAL INHIBITORY CONCENTRATION MIC, Human Serum): 0.5 µg/mL (≈ 0.631 µM)
MIC (S. aureus GC 6335; GC6335, read-out: MINIMAL INHIBITORY CONCENTRATION MIC, Mouse Serum): 0.5 µg/mL (≈ 0.631 µM)
MIC (S. aureus GC 6335; GC6335, read-out: MINIMAL INHIBITORY CONCENTRATION MIC, Water): 1 µg/mL (≈ 1.26 µM)
MIC (E. faecalis GC 2267; GC2267, read-out: MINIMAL INHIBITORY CONCENTRATION MIC, Human Serum): 4 µg/mL (≈ 5.05 µM)
MIC (E. faecalis GC 2267; GC2267, read-out: MINIMAL INHIBITORY CONCENTRATION MIC, Mouse Serum): 2 µg/mL (≈ 2.53 µM)
MIC (E. faecalis GC 2267; GC2267, read-out: MINIMAL INHIBITORY CONCENTRATION MIC, Water): 16 µg/mL (≈ 20.2 µM)
MIC (E. faecalis GC 2242; GC2242, read-out: MINIMAL INHIBITORY CONCENTRATION MIC, Human Serum): 4 µg/mL (≈ 5.05 µM)
MIC (E. faecalis GC 2242; GC2242, read-out: MINIMAL INHIBITORY CONCENTRATION MIC, Mouse Serum): 2 µg/mL (≈ 2.53 µM)
MIC (E. faecalis GC 2242; GC2242, read-out: MINIMAL INHIBITORY CONCENTRATION MIC, Water): 8 µg/mL (≈ 10.1 µM)
MIC (E. faecium GC 4556; GC4556, read-out: MINIMAL INHIBITORY CONCENTRATION MIC, Human Serum): 8 µg/mL (≈ 10.1 µM)
MIC (E. faecium GC 4556; GC4556, read-out: MINIMAL INHIBITORY CONCENTRATION MIC, Mouse Serum): 2 µg/mL (≈ 2.53 µM)
MIC (E. faecium GC 4556; GC4556, read-out: MINIMAL INHIBITORY CONCENTRATION MIC, Water): 8 µg/mL (≈ 10.1 µM)
MIC (S. pneumoniae* GC 4465; [1]): 2 µg/mL (≈ 2.53 µM)
MIC (S. pneumoniae* GC 4465; [2]): 0.5 µg/mL (≈ 0.631 µM)
MIC (S. pneumoniae* GC 4465; [3]): 1 µg/mL (≈ 1.26 µM)
MIC (S. agalactiae GC 4564; GC4564, read-out: MINIMAL INHIBITORY CONCENTRATION MIC, Human Serum): 4 µg/mL (≈ 5.05 µM)
MIC (S. agalactiae GC 4564; GC4564, read-out: MINIMAL INHIBITORY CONCENTRATION MIC, Mouse Serum): 1 µg/mL (≈ 1.26 µM)
MIC (S. agalactiae GC 4564; GC4564, read-out: MINIMAL INHIBITORY CONCENTRATION MIC, Water): 2 µg/mL (≈ 2.53 µM)
SMILES: Cc1cc(C)cc(C(=O)OCOC(=O)N(CC(=O)Nc2cc(N(C)C)c3c(c2O)C(=O)C2=C(O)[C@]4(O)C(=O)C(C(N)=O)=C(O)[C@@H](N(C)C)[C@@H]4C[C@@H]2C3)C(C)(C)C)c1 [Example 51]
